This note sets out measurements from US20200289482A1, “CYSTIC FIBROSIS TRANSMEMBRANE CONDUCTANCE REGULATOR MODULATORS FOR TREATING AUTOSOMAL DOMINANT POLYCYSTIC KIDNEY DISEASE” (The Johns Hopkins University, priority 2017, published 2020).

The test system of assay [1] is cAMP in PC1 conditional knockout mouse kidneys. As to the kind of experiment: cAMP levels in mouse kidney tissue. It counts as in vivo. The settings on record: kidney samples from mice of FIG. 1 (VX-809 30 mg/kg). As to the method:
FIG. 4A, FIG. 4B, FIG. 4C, FIG. 4D, and FIG. 4E show (FIG. 4A-FIG. 4B) cAMP levels are reduced by VX-809. (FIG. 4A) cAMP levels in mouse tissue were reduced by VX-809. The kidney samples (n=6) analyzed were taken from those depicted in FIG. 1. (FIG. 4B) Confluent PN and PH cells were treated with VX-809 (10 μM) or DMSO for 16 h and then treated with forskolin (100 μM) for 30 min before the cells were harvested for the assay. Columns represent means±SEM. Statistical analysis was performed using a two-tailed Student's t-test. Each set of data is from three individual wells; Note that resting cAMP is greater in PN vs PH cells as previously shown (25). Also note that forskolin caused a large increase in cAMP. […] The data were analyzed by non-parametric t-test. […]
It has been shown previously in both animal and cell culture models of ADPKD that cells lacking functional PC1 have elevated cAMP levels when compared to normal (24). To assess the effect of CFTR correctors, cAMP activity was measured in PC1 conditional knockout mouse kidneys and in PN cells that were either left untreated or treated with VX-809. […]
Confluent cells were treated with VX-809 (10 μM) or DMSO for 16 h before being harvested for assay. Cyclic AMP levels were measured with a direct cAMP Enzyme Immunoassay Kit (Sigma, # CA200) according to the manufacturer's protocol. The results are expressed as pmole/ml. […]
Background: cAMP levels reflect the balance of adenylyl cyclase and phosphodiesterase activity.

In a further assay the test system is AC3. The experiment in a line: Western blot of adenylyl cyclase 3 expression. It counts as cell-based, mouse. The settings on record: PN cells treated with VX-809. As to the method: (§1) FIG. 4A, FIG. 4B, FIG. 4C, FIG. 4D, and FIG. 4E show (FIG. 4A-FIG. 4B) cAMP levels are reduced by VX-809. (FIG. 4A) cAMP levels in mouse tissue were reduced by VX-809. The kidney samples (n=6) analyzed were taken from those depicted in FIG. 1. (FIG. 4B) Confluent PN and PH cells were treated with VX-809 (10 μM) or DMSO for 16 h and then treated with forskolin (100 μM) for 30 min before the cells were harvested for the assay. Columns represent means±SEM. Statistical analysis was performed using a two-tailed Student's t-test. Each set of data is from three individual wells; Note that resting cAMP is greater in PN vs PH cells as previously shown (25). Also note that forskolin caused a large increase in cAMP. A smaller increase occurred with IBMX. However, the increase induced by forskolin alone was similar to that by IBMX plus forskolin. […] (FIG. 4C, FIG. 4D, and FIG. 4E) Adenylyl cyclase expression. (FIG. 4C) Western blot showing the expression of adenylyl cyclase (AC) 6 and AC3 in treated and control PN cells. (FIG. 4D-FIG. 4E) Columns represent means±SEM of the AC3 and AC6 expression. The data were analyzed by non-parametric t-test. The experiment was repeated four times. For all graphs, *P<0.05, **P<0.01, and ***P<0.001;
(§2) There are two classes of adenylyl cyclases that are regulated by intracellular Ca^2+: one class is activated, and the other inhibited. […]
In general terms: In western blotting, separated proteins are transferred to a membrane and probed.

A further assay concerns AC6. As to the kind of experiment: Western blot of adenylyl cyclase 6 expression. It counts as cell-based, mouse. As to conditions: PN cells treated with VX-809. As to the method:
as §1, §2

Another assay relates to Hsp90. As to the kind of experiment: Western blot of Hsp90 in PN cells. It counts as cell-based, mouse. As to conditions: VX-809 10 μM 16 h. As to the method:
FIG. 8A, FIG. 8B, FIG. 8C, FIG. 8D, FIG. 8E, FIG. 8F, FIG. 8G, and FIG. 8H show chaperone expression is altered in PH and PN cells by VX-809. (FIG. 8A) Western blot showing expression of HSP27, 70 and HSP 90 in VX-809 treated or control PN cells. […] (FIG. 8E). Western blot of HSP27, 70 and 90 in PH vs. PN cells. […] Whereas, Hsp70 is higher in PH vs. PN cells. Data were analyzed by non-parametric t test. Experiment was repeated 4-5 times. Cells were grown in 10-cm culture dishes at permissive conditions (33° C.) with γ-interferon in culture media. Cells were then transferred to non-permissive conditions at 37° C., γ-interferon free culture media and evaluated at full confluence. At day four, cells were treated with VX-809 (10 μM) for 16 h and harvested on fifth day for assay. *P<0.05., **P<0.01, ***P<0.001, ****P<0.0001; To facilitate their growth in the kidney, cysts have developed an altered network of proteins that most likely serves to protect them from stress (34). Next, it was determined whether VX-809 would alter the levels of Hsps in pkd−/− mice and in PN cells. […] Hsp 27, 70 and 90 are all elevated in cystic kidneys compared to normal controls. […] There is no change in Hsp 40. […] Both sets of data are consistent with an alteration in the heat shock response to cyst growth.

Assay [2] concerns caspase 3 activity in PN cells. As to the kind of experiment: EnzChek Caspase-3 assay (apoptosis). It counts as cell-based, mouse. The settings on record: 16 h treatment. As to the method:
Apoptosis was measured using the EnzChek Caspase-3 Assay Kit (Invitrogen # E13184). Cells were treated either with VX-809 or with DMSO at indicated concentrations for 16 h or left untreated (control). Both treated and control cells were then harvested, lysed, and assayed as described in the manufacturer's protocol. Reactions were carried out at room temperature, and fluorescence was measured in a fluorescence microplate reader (SpectraMax M3), with excitation at 496 nm and emission detection at 520 nm. Background fluorescence, determined for a no-enzyme control, has been subtracted from each value. Ac-DEVD-CHO was used as an inhibitor control (Inh-cntrl) to confirm the correlation between signal detection and caspase3-like protease activity. Data were analyzed using one-way and ANOVA multiple comparisons. n=4-5. ****P<0.0001;
Apoptosis is associated with the absence of PC1 in ADPKD (36). To assess whether apoptosis is directly altered by VX-809, caspase 3 activity was monitored in PN cells.

Another assay addresses CFTR (Mus musculus, UniProt P26361). The experiment in a line: CFTR expression in PN cells. It counts as cell-based. On the set-up: endogenous in cells; host or cells: PN (Pkd1-null mouse proximal tubule) cells. The settings on record: 10 μM VX-809 for 16 h vs control PN cells. As to the method:
FIG. 19A, FIG. 19B, FIG. 19C, and FIG. 19D show CFTR expression in PN cells treated with VX-809 (10 μM) for 16 h.
The expression of CFTR was evaluated in PN cells treated with VX-809 and control PN cells. PN cells were treated with 10 μM VX-809 for 16 h or a control.

Sequence of CFTR (P26361 whole entry): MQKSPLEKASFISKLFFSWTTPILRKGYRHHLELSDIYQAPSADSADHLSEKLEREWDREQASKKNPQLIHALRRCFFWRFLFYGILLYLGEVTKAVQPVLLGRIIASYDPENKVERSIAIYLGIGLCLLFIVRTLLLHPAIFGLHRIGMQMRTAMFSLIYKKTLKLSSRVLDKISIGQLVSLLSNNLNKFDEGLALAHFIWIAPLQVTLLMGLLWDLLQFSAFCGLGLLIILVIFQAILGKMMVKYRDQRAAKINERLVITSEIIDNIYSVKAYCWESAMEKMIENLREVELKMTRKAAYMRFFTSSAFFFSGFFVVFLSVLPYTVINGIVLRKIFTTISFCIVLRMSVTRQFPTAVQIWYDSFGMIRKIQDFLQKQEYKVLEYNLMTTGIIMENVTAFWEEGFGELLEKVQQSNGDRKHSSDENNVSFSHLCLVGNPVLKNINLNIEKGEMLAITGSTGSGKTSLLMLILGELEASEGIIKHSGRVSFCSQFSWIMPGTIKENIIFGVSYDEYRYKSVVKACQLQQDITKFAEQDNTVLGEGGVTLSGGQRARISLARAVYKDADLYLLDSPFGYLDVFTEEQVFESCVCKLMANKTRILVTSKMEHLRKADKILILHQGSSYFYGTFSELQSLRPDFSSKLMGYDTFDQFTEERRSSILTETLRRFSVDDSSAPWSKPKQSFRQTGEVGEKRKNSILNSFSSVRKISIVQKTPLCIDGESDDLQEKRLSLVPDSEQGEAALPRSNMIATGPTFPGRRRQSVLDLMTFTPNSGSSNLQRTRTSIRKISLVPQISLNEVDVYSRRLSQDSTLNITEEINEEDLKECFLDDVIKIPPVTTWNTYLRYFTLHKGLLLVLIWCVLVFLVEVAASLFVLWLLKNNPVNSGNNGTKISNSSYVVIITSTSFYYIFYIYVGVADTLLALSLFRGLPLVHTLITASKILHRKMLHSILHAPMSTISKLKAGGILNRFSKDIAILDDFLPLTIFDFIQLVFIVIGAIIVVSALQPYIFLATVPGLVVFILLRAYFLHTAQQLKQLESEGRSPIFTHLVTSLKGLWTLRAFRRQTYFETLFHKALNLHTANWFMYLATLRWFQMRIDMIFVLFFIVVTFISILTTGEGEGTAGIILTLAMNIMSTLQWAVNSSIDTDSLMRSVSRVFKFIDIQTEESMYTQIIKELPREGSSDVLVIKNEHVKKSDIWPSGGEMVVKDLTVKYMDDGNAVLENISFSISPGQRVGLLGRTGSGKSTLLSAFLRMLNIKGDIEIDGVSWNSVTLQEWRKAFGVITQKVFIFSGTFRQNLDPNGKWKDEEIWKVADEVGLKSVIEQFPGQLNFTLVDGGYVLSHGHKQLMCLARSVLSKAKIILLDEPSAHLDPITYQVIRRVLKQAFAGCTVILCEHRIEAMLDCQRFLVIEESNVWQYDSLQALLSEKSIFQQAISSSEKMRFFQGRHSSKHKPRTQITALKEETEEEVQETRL

In the case of lumacaftor [VX-809], the “cAMP levels in mouse kidneys” value in assay [1] is “significantly decreased the cAMP levels”. Besides, the AC3 levels entry in the assay on AC3 is “decreased”. The “AC6 regulation (expression)” value with AC6 is recorded as “not AC6”. Besides, the “Hsp90 expression in PN cells” value with Hsp90 is “reduced expression”. Further, in assay [2], the “caspase 3 activity” value was “small reduction in caspase 3 activity”. Further, the CFTR expression result on CFTR is “enhanced CFTR expression”.
